# Reference: US12437835B2, “Interrogatory cell-based assays and uses thereof” (Berg LLC, priority 2012, dated 2025)
# Entries after “also recorded” stand apart in the source; their conditions may differ.
# What was measured:
# LDHA = experiment: Wet lab validation of LDHA expression in HepG2 cells; format: cell-based; settings: HepG2, 50 uM or 100 uM CoQ10, 24 or 48 hours
# Protocol: The cell model comprising the above-mentioned cells, wherein the cells were exposed to each condition described above, was additionally interrogated by exposing the cells to an environmental perturbation by treating with Coenzyme Q10. Specifically, the cells were treated with Coenzyme Q10 at 0, 50 μM, or 100 μM.
# Cell samples as well as media samples for each cell line with each condition and each Coenzyme Q10 treatment were collected at various times following treatment, including after 24 hours and 48 hours of treatment.
# Protein accession number P00338 is LDHA. Wet lab validation of proteomics data were performed for LDHA expression in HepG2 cells (see FIG. 20).
# [1] = system: human mitochondrial energy metabolism genes; experiment: Transcriptional profiling of mitochondrial energy metabolism genes in diabetic cardiomyocytes; format: cell-based; settings: diabetic drug plus rescue molecule Coenzyme Q10 (T+R) vs untreated (UT)
# Protocol: Human cardiomyocytes were subject to conditions simulating an diabetic environment experienced by the disease-relevant cells in vivo. Specifically, the cells were exposed to hyperglycemic conditions and hyperlipidemia conditions. The hyperglycemic condition was induced by culturing cells in media containing 22 mM glucose. The hyperlipidemia condition was induced by culturing the cells in media containing 1 mM L-carnitine, 0.7 mM Oleic acid and 0.7 mM Linoleic acid. […]
# Cell samples from each condition with each perturbation treatment were collected at various times following treatment, including after 6 hours of treatment. For certain conditions, media samples were also collected and analyzed.
# iProfiling of changes in total cellular protein expression by quantitative proteomics was performed for cell and media samples collected for each condition and with each “environmental perturbation”, i.e, diabetic drug treatment, Coenzyme Q10 treatment or both, using the techniques described above in the detailed description. […] Following data collection (Ct), the final fold change over control was determined using the δCt method as outlined in manufacturer's protocol. […] Functional assays such as Oxygen consumption rate OCR were measured by employing the Seahorse analyzer essentially as recommended by the manufacturer. […]
# [2] = system: hyperglycemia conditioned cardiomyocytes; experiment: Mitochondrial oxygen consumption rate in hyperglycemia conditioned cardiomyocytes (Seahorse); format: cell-based, Human; settings: diabetic drug plus Coenzyme Q10 (T1+R or T2+R)
# Protocol: Human cardiomyocytes were subject to conditions simulating an diabetic environment experienced by the disease-relevant cells in vivo. Specifically, the cells were exposed to hyperglycemic conditions and hyperlipidemia conditions. The hyperglycemic condition was induced by culturing cells in media containing 22 mM glucose. The hyperlipidemia condition was induced by culturing the cells in media containing 1 mM L-carnitine, 0.7 mM Oleic acid and 0.7 mM Linoleic acid.
# iProfiling of changes in total cellular protein expression by quantitative proteomics was performed for cell and media samples collected for each condition and with each “environmental perturbation”, i.e, diabetic drug treatment, Coenzyme Q10 treatment or both, using the techniques described above in the detailed description. Transcriptional profiling experiments were carried out using the Biorad cfx-384 amplification system. Following data collection (Ct), the final fold change over control was determined using the δCt method as outlined in manufacturer's protocol. Lipidomics experiments were carried out using mass spectrometry. Functional assays such as Oxygen consumption rate OCR were measured by employing the Seahorse analyzer essentially as recommended by the manufacturer. OCR was recorded by the electrodes in a […] chamber created with the cartridge pushing against the seahorse culture plate. […]
# HUVEC cells [3] = experiment: HUVEC proliferation (propidium iodide incorporation, G2/M phase); format: cell-based, Human; settings: sub-confluent HUVEC, 72 hours, 100 or 1500 μM CoQ10
# Protocol: Methods: Human umbilical vein endothelial cell (HUVEC) fate decisions that modulate the angiogenic phenotype were examined in the presence of 100 or 1500 μM CoQ10 or excipient and compared to untreated control cells. Endothelial cell fate assays for apoptosis, proliferation, migration and 3-D tube formation within MATRIGEL® were performed.
# CoQ10 decreases endothelial cell numbers and proliferation: Sub-confluent cultures of HUVEC cells were treated for 72 hours with 100 or 1500 μM CoQ10 and assayed for both cell numbers (FIG. 54A) and proliferation (FIG. 54B) using a propidium iodide incorporation assay (detects G2/M phase DNA).
# HUVEC cells [4] = experiment: HUVEC bioenergetics (Seahorse assays); format: cell-based, Human; settings: sub-confluent HUVEC cultures, CoQ10 10, 100, 1500 μM
# Protocol: The bioenergetics of HUVEC cells were assessed in the presence of various concentrations of CoQ10. Specifically, HUVEC cells were grown in subconfluent or confluent conditions in the absence or presence of CoQ10 (10, 100, 1500 μM). Oxygen consumption rates (OCR), both total and mitochondrial, ATP production, and Extra Cellular Acidification Rate (ECAR) were assessed using Seahorse assays.
# Bcl2 = settings: normal fibroblast, co-administration of CoQ-10 and VEGF; cited from earlier work
smiles,measurement,setting,value
"COC1=C(OC)C(=O)C(C/C=C(\C)CC/C=C(\C)CC/C=C(\C)CC/C=C(\C)CC/C=C(\C)CC/C=C(\C)CC/C=C(\C)CC/C=C(\C)CC/C=C(\C)CCC=C(C)C)=C(C)C1=O [CoQ10, Coenzyme Q10]",LDHA expression levels,LDHA,decreased
same,transcriptional network and expression of human mitochondrial energy metabolism genes,[1]; listed as Coenzyme Q10,normalize gene expression and transcription
same,transcriptional network and expression of human mitochondrial energy metabolism genes,[1]; listed as rescue molecule,normalizes gene expression
same,mitochondrial OCR (oxygen consumption rate),[2],normalized
same,mitochondrial OCR (oxygen consumption rate),[2]; listed as rescue molecule,normalizes
same,EC proliferation (G2/M phase cells),HUVEC cells [3],dose-dependent effect; also recorded: potent inhibitor of endothelial proliferation; also recorded: impairs endothelial proliferation
same,mitochondrial OCR,HUVEC cells [4],reverts mitochondrial OCR to confluent level OCR
same,levels of Bcl2,Bcl2,no effect
